Data published in patent US20180338980A1, “AROMATIC SULFONAMIDE DERIVATIVES” (BAYER PHARMA AKTIENGESELLSCHAFT, priority 2015, published 2018).
pIC50: −log10 of the molar value. “And” between values parts separate entries of the source, which are not always exact repeats. Identical values can stand only once.

Biological target: T1, P2X4 (Homo sapiens, UniProt Q99571)
T1 sequence (Q99571 1-388): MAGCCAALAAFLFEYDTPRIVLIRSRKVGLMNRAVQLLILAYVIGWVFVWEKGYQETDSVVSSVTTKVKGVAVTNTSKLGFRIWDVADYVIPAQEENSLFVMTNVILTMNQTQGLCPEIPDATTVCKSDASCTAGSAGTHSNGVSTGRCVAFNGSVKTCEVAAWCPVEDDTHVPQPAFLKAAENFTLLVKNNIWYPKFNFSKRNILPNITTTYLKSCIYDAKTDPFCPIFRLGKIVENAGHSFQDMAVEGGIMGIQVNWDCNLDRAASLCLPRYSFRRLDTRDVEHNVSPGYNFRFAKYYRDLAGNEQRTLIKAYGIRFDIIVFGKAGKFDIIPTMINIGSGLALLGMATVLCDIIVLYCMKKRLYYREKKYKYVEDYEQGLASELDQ
Experiment: Assay B: human P2X4 receptor cell line, mitochondrial photina luminescence (agonist Bz-ATP at EC50)
Type: cell-based
Parameters: host or cells: HEK 293 (recombinant, constitutively expressing; with mitochondrial photina in Assay B)
Settings: HEK human P2X4 cell line, photina luminescence, agonist Bz-ATP at EC50, average; for Emax: read-out: human P2X4 Assay B avg Efficacy
Summary of the method: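 Recombinant cell line constitutively expressing human P2X4 and mitochondrial photina photoprotein, reconstituted with coelenterazine. Receptor stimulated with Bz-ATP at EC50; calcium influx read immediately as luminescence.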

SMILES | pIC50 | Emax [%]
CN1CCCC(Oc2ccc(NC(=O)Cc3ccccc3)cc2S(N)(=O)=O)C1 (stereo not shown) [Example 219, N-{4-[(1-Methylpiperidin-3-yl)oxy]-3-sulfamoylphenyl}-2-phenylacetamide] | < 4.30 | 23
CN1CCCC(Oc2ccc(NC(=O)Cc3ccccc3Cl)cc2S(N)(=O)=O)C1 (stereo not shown) [Example 220, 2-(2-Chlorophenyl)-N-{4-[(1-methylpiperidin-3-yl)oxy]-3-sulfamoylphenyl}acetamide] | 5.42 | 77
CN1CCC(Oc2ccc(NC(=O)Cc3ccccc3)cc2S(N)(=O)=O)C1 (stereo not shown) [Example 221, N-{4-[(1-Methylpyrrolidin-3-yl)oxy]-3-sulfamoylphenyl}-2-phenylacetamide] | < 4.30 | 30
CN1CCC(Oc2ccc(NC(=O)Cc3ccccc3Cl)cc2S(N)(=O)=O)C1 (stereo not shown) [Example 222, 2-(2-Chlorophenyl)-N-{4-[(1-methylpyrrolidin-3-yl)oxy]-3-sulfamoylphenyl}acetamide] | 5.07 and 5.09 and < 4.80 | 70
NS(=O)(=O)c1cc(NC(=O)Cc2ccc(F)cc2)ccc1Oc1ccc(Cl)cc1 [Example 223, N-[4-(4-Chlorophenoxy)-3-sulfamoylphenyl]-2-(4-fluorophenyl)acetamide] | 5.73 | 82
N#Cc1ccccc1CC(=O)Nc1ccc(Oc2cccc(Cl)c2)c(S(N)(=O)=O)c1 [Example 225, N-[4-(3-Chlorophenoxy)-3-sulfamoylphenyl]-2-(2-cyanophenyl)acetamide] | 6.72 | 98
N#Cc1cccc(CC(=O)Nc2ccc(Oc3cccc(Cl)c3)c(S(N)(=O)=O)c2)c1 [Example 226, N-[4-(3-Chlorophenoxy)-3-sulfamoylphenyl]-2-(3-cyanophenyl)acetamide] | 6.31 | 75
NS(=O)(=O)c1cc(NC(=O)Cc2ccc(C(F)(F)F)cc2)ccc1Oc1ccc(Cl)cc1 [Example 227, N-[4-(4-Chlorophenoxy)-3-sulfamoylphenyl]-2-[4-(trifluoromethyl)phenyl]acetamide] | 5.75 | 69
NS(=O)(=O)c1cc(NC(=O)Cc2ccc(Cl)cc2)ccc1Oc1ccc(Cl)cc1 [Example 228, N-[4-(4-Chlorophenoxy)-3-sulfamoylphenyl]-2-(4-chlorophenyl)acetamide] | 5.80 | 58
NS(=O)(=O)c1cc(NC(=O)Cc2ccccc2F)ccc1Oc1ccc(Cl)cc1 [Example 230, N-[4-(4-Chlorophenoxy)-3-sulfamoylphenyl]-2-(2-fluorophenyl)acetamide] |  | 50
Cn1ccc(Oc2ccc(NC(=O)Cc3ccccc3Cl)cc2S(N)(=O)=O)n1 [Example 236, 2-(2-Chlorophenyl)-N-{4-[(1-methyl-1H-pyrazol-3-yl)oxy]-3-sulfamoylphenyl}acetamide] | 6.63 | 77
Cn1nccc1Oc1ccc(NC(=O)Cc2ccccc2Cl)cc1S(N)(=O)=O [Example 237, 2-(2-Chlorophenyl)-N-{4-[(1-methyl-1H-pyrazol-5-yl)oxy]-3-sulfamoylphenyl}acetamide] | 6.63 | 59
CN1CCC(Oc2ccc(NC(=O)Cc3ccccc3Cl)cc2S(N)(=O)=O)CC1 [Example 238, 2-(2-Chlorophenyl)-N-{4-[(1-methylpiperidin-4-yl)oxy]-3-sulfamoylphenyl}acetamide] | < 4.80 | 
Cc1sc(-c2cccnc2)nc1Oc1ccc(NC(=O)Cc2ccccc2Cl)cc1S(N)(=O)=O [Example 239, 2-(2-Chlorophenyl)-N-(4-{[5-methyl-2-(pyridin-3-yl)-1,3-thiazol-4-yl]oxy}-3-sulfamoylphenyl)acetamide] | 6.82 | 99
Cc1cc(Oc2cccc(Cl)c2)c(S(N)(=O)=O)cc1NC(=O)Cc1ccccc1Cl [Example 240, N-[4-(3-Chlorophenoxy)-2-methyl-5-sulfamoylphenyl]-2-(2-chlorophenyl)acetamide] | 5.52 | 86
